# Patent US10071109B2, “Predictive biomarker for hypoxia-activated prodrug therapy” (Molecular Templates, Inc., priority 2013, dated 2018)
# Legend:
# [1] = Body weights of mice treated with TH-302 in PDX xenograft studies; assay type: in vivo; details: 60 mg/kg i.p. Q2W, data not shown
# Source text: (§1) A series of tumor xenograft experiments was initiated. In these gall bladder and NSCLC tumor experiments, patient-derived tumor xenograft (PDX) models were selected since these models more accurately mimic the histology and genetics of actual human tumors as compared with the cell line derived models. More specifically, the original tumor sources for these human tumor xenograft models were patient-derived (PDX) gall bladder and lung carcinomas that have been maintained subcutaneously in nude mice for >3 passages. When grown to 500-700 mm^3, the tumors were harvested for inoculation by selecting and slicing (into 3×3×3 mm^3 fragments) well grown portions of tumors. These tumor fragments were implanted subcutaneously in the right flank of athymic nu/nu mice (female, 6-8 weeks old (18-20 g)) for the efficacy experiments. All of the procedures for tumor harvesting, inoculation, animal dosing, and tumor and body weight measurement were conducted in a sterile hoods.
# For the efficacy studies, when the average tumor size reached 100-200 mm^3, mice were randomly grouped into vehicle and TH-302 treatment groups. Each group contained 8-10 mice. Since the tumor volume could affect the effectiveness of any given treatment, a randomized block design was used in the group assignment based upon their tumor volumes. […] Tumor volumes were measured twice weekly.
# [2] = test system: GL0608 gall bladder cancer PDX xenograft model; assay: TH-302 efficacy in GL0608 gall bladder cancer PDX xenograft model; assay type: in vivo, mice
# Source text: as §1
# (§2) For the efficacy studies, when the average tumor size reached 100-200 mm^3, mice were randomly grouped into vehicle and TH-302 treatment groups. Each group contained 8-10 mice. Since the tumor volume could affect the effectiveness of any given treatment, a randomized block design was used in the group assignment based upon their tumor volumes. […] After randomization, mice were treated with either vehicle or TH-302 i.p. 60 mg/kg twice per week (Q2W) for approximately 5-8 weeks based on tumor grow rate and response. The precise dosing periods are described in the legends of FIGS. 1 and 2 above. Tumor volumes were measured twice weekly.
# (§3) %ΔT/ΔC was calculated with the formula below: %ΔT/ΔC=((TVf−TVi)/(TVfCtrl−TViCtrl))×100% where TV=tumor volume, f=final, I=initial, and Ctrl=control group.
# (§4) If tumor regression was observed: %ΔT/ΔC=(TVf−TVi)/TVi)×100%=% Regression=(1−(TVf/TVi))×100% where TV=tumor volume, f=final, I=initial, and Ctrl=control group. […]
# [3] = test system: LU1304 NSCLC PDX xenograft model; assay: TH-302 efficacy in LU1304 NSCLC PDX xenograft model; assay type: in vivo, mice
# Source text: as §1
# (§5) For the efficacy studies, when the average tumor size reached 100-200 mm^3, mice were randomly grouped into vehicle and TH-302 treatment groups. Each group contained 8-10 mice. […] Tumor volumes were measured twice weekly.
# (§6) %ΔT/ΔC was calculated with the formula below: %ΔT/ΔC=((TVf−TVi)/(TVfCtrl−TViCtrl))×100% where TV=tumor volume, f=final, I=initial, and Ctrl=control group. […]
# [4] = test system: LU2505 NSCLC PDX xenograft model; assay: TH-302 efficacy in LU2505 NSCLC PDX xenograft model; assay type: in vivo, mice
# Source text: as §1, §5, §6
# [5] = test system: LU1380 NSCLC PDX xenograft model; assay: TH-302 efficacy in LU1380 NSCLC PDX xenograft model; assay type: in vivo, mice
# Source text: as §1, §5, §6
# [6] = test system: LU1235 NSCLC PDX xenograft model; assay: TH-302 efficacy in LU1235 NSCLC PDX xenograft model; assay type: in vivo, mice
# Source text: as §1, §5, §6
# [7] = test system: panel of 11 cancer cell-line derived models; details: previous tumor xenograft studies; cited from earlier work
# [8] = test system: LU0357 NSCLC PDX xenograft model; assay: TH-302 efficacy in LU0357 NSCLC PDX xenograft model; assay type: in vivo, mice
# Source text: as §1, §5, §6
# [9] = test system: GL1208 gall bladder cancer PDX xenograft model; assay: TH-302 efficacy in GL1208 gall bladder cancer PDX xenograft model; assay type: in vivo, mice
# Source text: as §1, §5, §6
# [10] = test system: LU1245 NSCLC PDX xenograft model; assay: TH-302 efficacy in LU1245 NSCLC PDX xenograft model; assay type: in vivo, mice
# Source text: as §1, §2, §3, §4
# [11] = test system: LU0387 NSCLC PDX xenograft model; assay: TH-302 efficacy in LU0387 NSCLC PDX xenograft model; assay type: in vivo, mice
# Source text: as §1, §5, §6
structure (smiles),measurement,setting,value
"Cn1c(COP(=O)(NCCBr)NCCBr)cnc1[N+](=O)[O-] [TH-302, (2-bromoethyl)({[(2-bromoethyl)amino][(2-nitro-3-methylimidazol-4-yl)methoxy]phosphoryl})amine]",changes in the body weights of the mice treated with TH-302,"[1]; NSCLC PDX studies (LU1245, LU1380)",No significant changes
same,changes in the body weights of the mice treated with TH-302,"[1]; gall bladder PDX studies (GL0608, GL1208)",No significant changes
same,%ΔT/ΔC (TH-302),"[2]; GL0608, gall bladder, adenocarcinoma, TH-302 60 mg/kg i.p. twice per week (Q2W), 59 days",−100%
same,mice with a complete response (lack of tumor re-growth following regression),"[2]; GL0608, 60 mg/kg i.p. Q2W for 59 days, at day 99, final tumor measurement",10/10
same,"antitumor activity (tumor growth measurements), in words","[2]; GL0608, 60 mg/kg i.p. Q2W, treatment period 59 days",highly sensitive
same,%ΔT/ΔC (TH-302),"[3]; LU1304, NSCLC EGFR wt, TH-302 60 mg/kg i.p. twice per week (Q2W), approximately 5-8 weeks",93%
same,"antitumor activity, in words","[3]; LU1304, similar to LU1380",minor level of efficacy
same,%ΔT/ΔC (TH-302),"[4]; LU2505, NSCLC EGFR wt, TH-302 60 mg/kg i.p. twice per week (Q2W), approximately 5-8 weeks",34%
same,"antitumor activity, in words","[4]; LU2505, similar to LU1380",minor level of efficacy
same,%ΔT/ΔC (TH-302),"[5]; LU1380, NSCLC EGFR wt, TH-302 60 mg/kg i.p. twice per week (Q2W), 42 days",86%
same,"antitumor activity (tumor growth measurements), in words","[5]; LU1380, 60 mg/kg i.p. Q2W, after 42 days treatment",minor tumor growth inhibition
same,%ΔT/ΔC (TH-302),"[6]; LU1235, NSCLC EGFR mt, TH-302 60 mg/kg i.p. twice per week (Q2W), approximately 5-8 weeks",74%
same,"antitumor activity, in words","[6]; LU1235, similar to LU1380",minor level of efficacy
same,monotherapy efficacy (tumor growth delays),[7],modest
same,%ΔT/ΔC (TH-302),"[8]; LU0357, NSCLC EGFR mt, TH-302 60 mg/kg i.p. twice per week (Q2W), approximately 5-8 weeks",93%
same,"antitumor activity, in words","[8]; LU0357, similar to LU1380",minor level of efficacy
same,%ΔT/ΔC (TH-302),"[9]; GL1208, gall bladder, adenosquamous, TH-302 60 mg/kg i.p. twice per week (Q2W), 49 days",62%
same,"antitumor activity (tumor growth measurements), in words","[9]; GL1208, 60 mg/kg i.p. Q2W, after 49 days treatment",minor tumor growth inhibition
same,%ΔT/ΔC (TH-302),"[10]; LU1245, NSCLC EGFR wt, TH-302 60 mg/kg i.p. twice per week (Q2W), 49 days",−42%
same,"antitumor activity (tumor growth measurements), in words","[10]; LU1245, 60 mg/kg i.p. Q2W, 49 day dosing period",highly sensitive
same,mice with a complete response (lack of tumor re-growth following regression),"[10]; LU1245, 60 mg/kg i.p. Q2W, 49 day dosing, at day 73 (14 days post treatment termination)",5/10
same,%ΔT/ΔC (TH-302),"[11]; LU0387, NSCLC EGFR mt, TH-302 60 mg/kg i.p. twice per week (Q2W), approximately 5-8 weeks",84%
same,"antitumor activity, in words","[11]; LU0387, similar to LU1380",minor level of efficacy
